Assay results taken from ChEMBL document CHEMBL5518207, “Structure Guided Discovery of Novel Pan Metallo-β-Lactamase Inhibitors with Improved Gram-Negative Bacterial Cell Penetration” (J Med Chem, 2024).

Columns and labels:
Escherichia coli = assay: Potentiation of imipenem induced antibacterial activity against Escherichia coli CLB30005 harbouring NDM-1 incubated for 18 to 22 hrs in presence of imipenem by spectrophotometer based analysis; format: functional; conditions: time 18-22 hrs
[1] = Clearance in rat at 1 mg/kg, iv measured after 24 hrs by HPLC-MS analysis; format: ADME, organism-based; conditions: in vivo
Pseudomonas aeruginosa [2] = assay: Efflux ratio of MITC95 for potentiation of imipenem induced antibacterial activity against isogenic efflux wild type Pseudomonas aeruginosa MB9798 harbouring IMP to MITC95 for potentiation of imipenem induced antibacterial activity against isogenic efflux deleted mutant Pseudomonas aeruginosa MB9799 harbouring IMP; format: functional
[3] = Inhibition of GST tagged VIM-2 (unknown origin) expressed in Escherichia coli BL21 Star (DE3) competent cells using CCF2-FA as substrate incubated for 2 hrs by fluorescence based analysis
Pseudomonas aeruginosa [4] = assay: Potentiation of imipenem induced antibacterial activity against isogenic efflux deleted mutant Pseudomonas aeruginosa MB9799 harbouring IMP incubated for 18 to 22 hrs imipenem and beta lactamase inhibitor by spectrophotometer based analysis; format: functional; conditions: time 18-22 hrs
[5] = Inhibition of GST tagged IMP-1 (unknown origin) expressed in Escherichia coli BL21 Star (DE3) competent cells using CCF2-FA as substrate incubated for 2 hrs by fluorescence based analysis
Klebsiella pneumoniae = assay: Potentiation of imipenem induced antibacterial activity against Klebsiella pneumoniae IHMA599644 harbouring VIM-1 incubated for 18 to 22 hrs imipenem by spectrophotometer based analysis; format: functional; conditions: time 18-22 hrs
[6] = Volume of distribution at steady state in rat at 1 mg/kg, iv measured after 24 hrs by HPLC-MS analysis; format: ADME, organism-based; conditions: in vivo, read-out: Vdss
[7] = Unbound fraction in rat plasma at 1 mg/kg, iv measured after 24 hrs by HPLC-MS analysis; format: ADME, organism-based
[8] = Cmax in Wistar rat at 90 mg/kg, iv measured after 24 hrs by HPLC-MS analysis; format: ADME, organism-based; conditions: in vivo
[9] = Inhibition of GST tagged NDM-1 (unknown origin) expressed in Escherichia coli BL21 Star (DE3) competent cells using CCF2-FA as substrate incubated for 2 hrs by fluorescence based analysis
Pseudomonas aeruginosa [10] = assay: Potentiation of imipenem induced antibacterial activity against isogenic efflux wild type Pseudomonas aeruginosa MB9798 harbouring IMP incubated for 18 to 22 hrs imipenem and beta lactamase inhibitor by spectrophotometer based analysis; format: functional; conditions: time 18-22 hrs
[11] = AUC in rat at 1 mg/kg, iv measured after 24 hrs by HPLC-MS analysis; format: ADME, organism-based; conditions: in vivo
[12] = Inhibition of GST tagged VIM-1 (unknown origin) expressed in Escherichia coli BL21 Star (DE3) competent cells using CCF2-FA as substrate incubated for 2 hrs by fluorescence based analysis
[13] = MRT in rat at 1 mg/kg, iv measured after 24 hrs by HPLC-MS analysis; format: ADME, organism-based; conditions: in vivo
[14] = Cmax in rat at 1 mg/kg, iv measured after 24 hrs by HPLC-MS analysis; format: ADME, organism-based; conditions: in vivo
Serratia marcescens = assay: Potentiation of imipenem induced antibacterial activity against Serratia marcescens CL5741 harbouring IMP-1 incubated for 18 to 22 hrs imipenem by spectrophotometer based analysis; format: functional; conditions: time 18-22 hrs
[15] = AUC in rat at 5 mg/kg, iv measured after 24 hrs by HPLC-MS analysis; format: ADME, organism-based; conditions: in vivo
[16] = molecular target: Voltage-gated inwardly rectifying potassium channel KCNH2 (Homo sapiens, UniProt Q12809); assay: Inhibition of human ERG; format: toxicity
[17] = Cmax in Beagle dog at 1 mg/kg, iv measured after 24 hrs by HPLC-MS analysis; format: ADME, organism-based, Canis lupus familiaris; conditions: in vivo
[18] = Toxicity in Wistar rat assessed as increase in histamine concentration in plasma at 100 mg/kg, iv measured after 24 hrs; format: organism-based; conditions: in vivo
Cytochrome P450 2D6 = Cytochrome P450 2D6 (Homo sapiens, UniProt P10635); assay: Inhibition of CYP2D6 (unknown origin); format: ADME
[19] = Clearance in rat at 5 mg/kg, iv measured after 24 hrs by HPLC-MS analysis; format: ADME, organism-based; conditions: in vivo
[20] = Volume of distribution at steady state in rat at 5 mg/kg, iv measured after 24 hrs by HPLC-MS analysis; format: ADME, organism-based; conditions: in vivo, read-out: Vdss
Cytochrome P450 3A4 = Cytochrome P450 3A4 (Homo sapiens, UniProt P08684); assay: Inhibition of CYP3A4 (unknown origin); format: ADME
[21] = molecular target: Voltage-gated potassium channel, IKs; KCNQ1(Kv7.1)/KCNE1(MinK) (Homo sapiens, UniProt P15382+P51787); assay: Inhibition of KCNQ1/KCNE1 (unknown origin); format: protein-complex assay
[22] = molecular target: Voltage-dependent L-type calcium channel subunit alpha-1C (Homo sapiens, UniProt Q13936); assay: Inhibition of Cav1.2 channel (unknown origin)
[23] = Cmax in Wistar rat at 100 mg/kg, iv measured after 24 hrs by HPLC-MS analysis; format: ADME, organism-based; conditions: in vivo
[24] = Cmax in rat at 5 mg/kg, iv measured after 24 hrs by HPLC-MS analysis; format: ADME, organism-based; conditions: in vivo
Cytochrome P450 2C8 = molecular target: T1, Cytochrome P450 2C8 (Homo sapiens, UniProt P10632); assay: Inhibition of CYP2C8 (unknown origin); format: ADME
T1 sequence (P10632 whole entry): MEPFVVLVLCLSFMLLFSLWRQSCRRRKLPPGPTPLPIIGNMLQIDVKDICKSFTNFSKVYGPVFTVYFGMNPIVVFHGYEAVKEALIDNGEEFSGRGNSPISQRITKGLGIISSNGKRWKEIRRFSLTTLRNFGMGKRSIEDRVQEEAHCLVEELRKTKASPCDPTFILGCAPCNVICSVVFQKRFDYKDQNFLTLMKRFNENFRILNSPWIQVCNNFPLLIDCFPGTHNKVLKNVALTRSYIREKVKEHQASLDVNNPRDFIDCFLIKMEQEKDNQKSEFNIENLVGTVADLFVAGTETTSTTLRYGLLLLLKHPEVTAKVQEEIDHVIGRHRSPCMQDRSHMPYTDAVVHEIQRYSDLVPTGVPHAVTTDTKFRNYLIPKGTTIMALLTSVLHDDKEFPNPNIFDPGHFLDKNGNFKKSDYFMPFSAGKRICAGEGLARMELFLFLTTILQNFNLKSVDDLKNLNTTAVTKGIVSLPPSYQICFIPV

[25] = molecular target: Sodium channel protein type 5 subunit alpha (Homo sapiens, UniProt Q14524); assay: Inhibition of NaV 1.5 channel (unknown origin)
[26] = MRT in rat at 5 mg/kg, iv measured after 24 hrs by HPLC-MS analysis; format: ADME, organism-based; conditions: in vivo
[27] = Toxicity in Beagle dog assessed as drug tolerability at 1 mg/kg, iv measured after 24 hrs by HPLC-MS analysis; format: organism-based, Canis lupus familiaris; conditions: in vivo
Cytochrome P450 2C9 = Cytochrome P450 2C9 (Homo sapiens, UniProt P11712); assay: Inhibition of CYP2C9 (unknown origin); format: ADME
[28] = Unbound fraction in rat plasma at 5 mg/kg, iv measured after 24 hrs by HPLC-MS analysis; format: ADME, organism-based
[29] = Toxicity in Wistar rat assessed as decrease in mean blood pressure at 100 mg/kg, iv measured after 20 mins; format: organism-based; conditions: in vivo
[30] = Cmax in Wistar rat at 5 mg/kg, iv administered as bolus dose measured after 24 hrs by HPLC-MS analysis; format: ADME, organism-based; conditions: in vivo

Sequence of Sodium channel protein type 5 subunit alpha (Q14524 whole entry): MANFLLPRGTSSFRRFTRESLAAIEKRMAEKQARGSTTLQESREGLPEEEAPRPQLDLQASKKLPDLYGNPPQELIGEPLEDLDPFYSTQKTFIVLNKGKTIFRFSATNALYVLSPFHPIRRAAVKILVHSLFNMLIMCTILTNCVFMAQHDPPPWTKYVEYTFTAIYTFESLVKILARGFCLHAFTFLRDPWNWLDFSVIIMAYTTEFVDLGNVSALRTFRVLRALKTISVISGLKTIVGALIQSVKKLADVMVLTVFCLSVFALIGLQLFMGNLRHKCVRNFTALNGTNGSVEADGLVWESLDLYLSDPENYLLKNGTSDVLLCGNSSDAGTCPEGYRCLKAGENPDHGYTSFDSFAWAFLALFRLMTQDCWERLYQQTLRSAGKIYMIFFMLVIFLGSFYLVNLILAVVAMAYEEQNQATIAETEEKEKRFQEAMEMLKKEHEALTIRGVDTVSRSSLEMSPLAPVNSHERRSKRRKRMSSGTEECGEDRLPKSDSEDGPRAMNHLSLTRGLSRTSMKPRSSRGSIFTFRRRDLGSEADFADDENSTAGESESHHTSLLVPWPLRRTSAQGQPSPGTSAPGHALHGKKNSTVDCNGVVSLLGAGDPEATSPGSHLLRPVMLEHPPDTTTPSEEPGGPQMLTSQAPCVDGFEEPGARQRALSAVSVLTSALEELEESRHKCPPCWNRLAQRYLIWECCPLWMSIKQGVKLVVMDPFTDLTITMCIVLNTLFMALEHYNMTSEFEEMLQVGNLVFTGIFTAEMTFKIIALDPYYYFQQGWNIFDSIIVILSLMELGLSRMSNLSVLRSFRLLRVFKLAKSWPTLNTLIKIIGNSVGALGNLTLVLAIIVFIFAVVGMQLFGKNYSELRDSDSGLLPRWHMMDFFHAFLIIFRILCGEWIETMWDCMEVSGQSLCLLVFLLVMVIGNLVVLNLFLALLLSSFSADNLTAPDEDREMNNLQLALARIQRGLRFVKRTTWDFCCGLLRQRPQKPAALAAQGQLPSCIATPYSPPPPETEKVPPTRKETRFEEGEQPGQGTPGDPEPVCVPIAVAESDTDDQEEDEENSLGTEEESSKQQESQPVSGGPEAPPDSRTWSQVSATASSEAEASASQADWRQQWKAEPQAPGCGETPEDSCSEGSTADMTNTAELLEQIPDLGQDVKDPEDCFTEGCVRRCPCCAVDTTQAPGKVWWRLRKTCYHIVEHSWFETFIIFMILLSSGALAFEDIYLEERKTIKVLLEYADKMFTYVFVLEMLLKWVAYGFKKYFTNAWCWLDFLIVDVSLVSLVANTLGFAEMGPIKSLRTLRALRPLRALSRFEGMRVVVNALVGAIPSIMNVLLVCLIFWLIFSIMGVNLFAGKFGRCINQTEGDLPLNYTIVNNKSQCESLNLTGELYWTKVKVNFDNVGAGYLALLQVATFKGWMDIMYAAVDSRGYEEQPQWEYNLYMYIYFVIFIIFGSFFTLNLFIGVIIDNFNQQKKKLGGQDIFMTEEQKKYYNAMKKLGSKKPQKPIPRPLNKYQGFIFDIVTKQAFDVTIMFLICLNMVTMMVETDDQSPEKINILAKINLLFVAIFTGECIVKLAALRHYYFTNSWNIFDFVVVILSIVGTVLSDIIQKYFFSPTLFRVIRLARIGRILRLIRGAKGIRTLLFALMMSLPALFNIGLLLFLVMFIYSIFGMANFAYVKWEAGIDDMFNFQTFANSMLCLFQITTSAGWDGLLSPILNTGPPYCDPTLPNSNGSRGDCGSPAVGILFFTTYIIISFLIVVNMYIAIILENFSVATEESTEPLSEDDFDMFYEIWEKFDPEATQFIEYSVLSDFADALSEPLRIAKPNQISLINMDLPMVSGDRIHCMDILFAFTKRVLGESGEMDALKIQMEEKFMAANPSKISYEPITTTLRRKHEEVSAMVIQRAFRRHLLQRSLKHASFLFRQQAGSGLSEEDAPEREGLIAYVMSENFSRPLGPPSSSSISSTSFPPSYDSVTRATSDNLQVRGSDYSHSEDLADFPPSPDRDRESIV
Sequence of Cytochrome P450 3A4 (P08684 whole entry): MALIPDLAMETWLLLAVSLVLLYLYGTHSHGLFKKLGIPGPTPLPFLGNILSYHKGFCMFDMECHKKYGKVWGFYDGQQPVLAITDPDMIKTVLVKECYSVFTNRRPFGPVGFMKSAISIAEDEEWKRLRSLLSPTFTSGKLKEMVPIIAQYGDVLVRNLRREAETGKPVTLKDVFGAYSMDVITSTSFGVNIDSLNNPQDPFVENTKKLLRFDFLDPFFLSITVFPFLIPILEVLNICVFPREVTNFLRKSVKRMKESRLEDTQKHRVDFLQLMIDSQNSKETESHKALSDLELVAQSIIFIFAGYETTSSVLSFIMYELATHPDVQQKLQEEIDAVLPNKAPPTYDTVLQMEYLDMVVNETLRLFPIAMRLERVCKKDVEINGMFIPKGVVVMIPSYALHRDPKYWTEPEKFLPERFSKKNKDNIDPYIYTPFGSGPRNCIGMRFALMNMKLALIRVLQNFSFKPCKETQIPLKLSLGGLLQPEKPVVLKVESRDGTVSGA
Sequence of Voltage-gated inwardly rectifying potassium channel KCNH2 (Q12809 whole entry): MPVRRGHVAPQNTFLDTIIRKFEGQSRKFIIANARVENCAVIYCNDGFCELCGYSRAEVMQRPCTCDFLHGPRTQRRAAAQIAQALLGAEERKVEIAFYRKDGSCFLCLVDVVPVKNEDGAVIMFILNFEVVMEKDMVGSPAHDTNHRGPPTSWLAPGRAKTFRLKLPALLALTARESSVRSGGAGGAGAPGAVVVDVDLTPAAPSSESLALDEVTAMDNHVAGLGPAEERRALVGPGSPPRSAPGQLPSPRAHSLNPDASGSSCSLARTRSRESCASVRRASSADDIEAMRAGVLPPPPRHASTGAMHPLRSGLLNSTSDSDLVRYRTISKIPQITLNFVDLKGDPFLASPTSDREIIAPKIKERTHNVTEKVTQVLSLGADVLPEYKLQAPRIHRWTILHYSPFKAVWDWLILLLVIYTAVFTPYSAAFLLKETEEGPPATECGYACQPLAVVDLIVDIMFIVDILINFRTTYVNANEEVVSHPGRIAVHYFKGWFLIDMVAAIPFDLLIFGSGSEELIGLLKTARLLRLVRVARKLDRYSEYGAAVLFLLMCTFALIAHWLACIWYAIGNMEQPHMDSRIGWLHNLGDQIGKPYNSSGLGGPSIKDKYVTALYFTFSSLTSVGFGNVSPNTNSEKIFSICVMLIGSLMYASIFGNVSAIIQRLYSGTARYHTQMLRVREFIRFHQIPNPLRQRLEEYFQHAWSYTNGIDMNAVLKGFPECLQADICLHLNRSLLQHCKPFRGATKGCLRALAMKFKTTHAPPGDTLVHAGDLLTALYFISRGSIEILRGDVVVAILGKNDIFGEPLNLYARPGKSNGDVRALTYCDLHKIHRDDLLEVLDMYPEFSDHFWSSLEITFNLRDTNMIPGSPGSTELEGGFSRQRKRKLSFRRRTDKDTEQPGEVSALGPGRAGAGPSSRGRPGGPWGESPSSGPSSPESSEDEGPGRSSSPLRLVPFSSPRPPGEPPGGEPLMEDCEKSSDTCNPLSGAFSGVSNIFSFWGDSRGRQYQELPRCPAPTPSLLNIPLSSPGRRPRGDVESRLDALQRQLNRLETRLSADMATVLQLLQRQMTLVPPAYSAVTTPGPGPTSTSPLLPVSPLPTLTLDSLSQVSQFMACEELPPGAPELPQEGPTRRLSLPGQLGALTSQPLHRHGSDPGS
Sequence of Cytochrome P450 2C9 (P11712 whole entry): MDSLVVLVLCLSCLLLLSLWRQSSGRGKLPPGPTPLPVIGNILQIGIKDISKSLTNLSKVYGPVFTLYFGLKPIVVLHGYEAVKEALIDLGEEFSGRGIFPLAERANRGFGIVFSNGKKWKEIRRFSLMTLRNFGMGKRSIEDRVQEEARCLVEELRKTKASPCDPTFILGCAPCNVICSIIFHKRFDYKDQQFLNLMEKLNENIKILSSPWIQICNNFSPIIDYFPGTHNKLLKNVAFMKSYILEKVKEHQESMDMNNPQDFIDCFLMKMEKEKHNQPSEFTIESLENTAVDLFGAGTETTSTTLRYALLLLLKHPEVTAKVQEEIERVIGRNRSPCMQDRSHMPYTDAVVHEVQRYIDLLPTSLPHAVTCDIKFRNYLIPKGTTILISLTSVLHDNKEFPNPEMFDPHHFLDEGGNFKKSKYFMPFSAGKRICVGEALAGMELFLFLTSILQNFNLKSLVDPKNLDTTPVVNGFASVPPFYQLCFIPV
Sequence of Voltage-gated potassium channel, IKs; KCNQ1(Kv7.1)/KCNE1(MinK) (P51787 whole entry): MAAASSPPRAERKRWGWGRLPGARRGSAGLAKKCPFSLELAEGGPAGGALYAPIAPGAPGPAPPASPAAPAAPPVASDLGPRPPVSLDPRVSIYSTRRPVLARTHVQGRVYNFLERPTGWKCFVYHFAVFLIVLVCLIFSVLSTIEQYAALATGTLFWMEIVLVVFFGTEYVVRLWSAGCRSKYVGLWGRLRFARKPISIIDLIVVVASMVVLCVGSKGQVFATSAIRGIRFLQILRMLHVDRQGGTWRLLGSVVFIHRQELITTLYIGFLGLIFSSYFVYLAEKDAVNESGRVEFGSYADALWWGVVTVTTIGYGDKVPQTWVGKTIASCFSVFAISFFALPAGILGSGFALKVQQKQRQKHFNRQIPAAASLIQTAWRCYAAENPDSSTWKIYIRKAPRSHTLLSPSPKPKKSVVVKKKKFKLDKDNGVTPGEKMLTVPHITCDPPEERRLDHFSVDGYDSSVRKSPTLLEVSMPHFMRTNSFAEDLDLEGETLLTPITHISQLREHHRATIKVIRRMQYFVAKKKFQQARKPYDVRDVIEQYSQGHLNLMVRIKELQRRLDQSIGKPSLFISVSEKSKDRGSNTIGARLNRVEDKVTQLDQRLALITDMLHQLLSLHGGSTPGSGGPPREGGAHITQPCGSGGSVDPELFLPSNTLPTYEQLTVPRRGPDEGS

SMILES	MITC95 (Escherichia coli)	Ratio (Pseudomonas aeruginosa [2])	IC50 [3]	MITC95 (Pseudomonas aeruginosa [4])	IC50 [5]	MITC95 (Klebsiella pneumoniae)	IC50 [9]	MITC95 (Pseudomonas aeruginosa [10])	IC50 [12]	MITC95 (Serratia marcescens)	other results
Nc1ccc(-c2ccc(CC3CCNCC3)c(S(N)(=O)=O)c2-c2nn[nH]n2)cn1	0.6 µM	4	140 nM	12.5 µM	164 nM	4.2 µM	12 nM	50 µM	25 nM	6.3 µM	clearance [1]: 3.5 mL/min/kg; Vd [6]: 0.25 L/kg; fraction unbound at 24 h [7]: 0.47; Cmax [8]: 791 µM; AUC at 24 h [11]: 11.7 µM·h; MRT [13]: 72.6 min; Cmax [14]: 16.3 µM
NS(=O)(=O)c1c(C(F)(F)F)ccc(-c2ccc(C3CCN(CC4CNC4)CC3)cc2)c1-c1nnn[nH]1	0.6 µM	12	62 nM	0.39 µM	0.4 nM	7.8 µM	2.3 nM	4.7 µM	3.8 nM	1.6 µM	AUC at 24 h [15]: 9.6 µM·h; IC50 [16]: > 30000 nM; Cmax [17]: 13.8 µM; Activity [18]: Toxic; IC50 (Cytochrome P450 2D6): > 50000 nM; clearance [19]: 19 mL/min/kg; Vd [20]: 0.73 L/kg; IC50 (Cytochrome P450 3A4): > 50000 nM; IC50 [21]: > 30000 nM; IC50 [22]: > 30000 nM; Cmax [23]: 726 µM; Cmax [24]: 33.1 µM; IC50 (Cytochrome P450 2C8): > 50000 nM; IC50 [25]: > 30000 nM; MRT [26]: 42.6 min; Activity [27]: Non-Toxic; IC50 (Cytochrome P450 2C9): > 50000 nM; fraction unbound at 24 h [28]: 0.35; Activity [29]: Toxic
NS(=O)(=O)c1c(CC2CNC2)ccc(-c2ccc(C3CCNCC3)cc2)c1-c1nn[nH]n1	0.8 µM	4	–	0.8 µM	26 nM	1.6 µM	11 nM	3.1 µM	7 nM	1.6 µM	Cmax [30]: 45 µM
